According to publication PMC9465256, “Discovering monoacylglycerol lipase inhibitors by a combination of fluorogenic substrate assay and activity-based protein profiling” (Frontiers in Pharmacology, 2022):

What was measured:
endogenous mouse MAGL = biological target: T1, endogenous mouse MAGL (Mus musculus, UniProt O35678); assay: Competitive ABPP, mouse brain membrane proteome: MAGL band; assay type: biochemical; conditions: FP-TAMRA 250 nM
T1 construct: on endogenous MAGL, we applied an ABPP assay with mouse brain membrane proteome; from tissue; host or cells: mouse brain membrane fraction
T1 sequence (O35678 1-303): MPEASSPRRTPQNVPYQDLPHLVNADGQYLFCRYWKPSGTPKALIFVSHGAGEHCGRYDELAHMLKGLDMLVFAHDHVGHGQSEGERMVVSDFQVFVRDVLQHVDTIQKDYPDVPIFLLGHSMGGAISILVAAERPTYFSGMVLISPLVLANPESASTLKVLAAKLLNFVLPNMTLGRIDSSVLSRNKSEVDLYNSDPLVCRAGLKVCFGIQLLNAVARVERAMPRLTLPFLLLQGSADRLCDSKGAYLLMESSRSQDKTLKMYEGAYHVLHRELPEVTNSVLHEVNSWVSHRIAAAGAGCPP
Procedure: Mouse brains were isolated according to guidelines approved by the ethical committee of Western China Hospital, Sichuan University (No. 2021765A). Mouse brains were dounce homogenized lysis buffer (20 mM HEPES, 2 mM DTT, 1 mM MgCl2, 25 U/mL benzonase) and incubated on ice for 15 min, followed by low-speed spin (2,500 g, 3 min, 4 C) to remove debris. The supernatant was subjected to ultracentrifugation (100,000 g, 45 min, 4°C) to generate the cytosolic fraction in the supernatant, as well as the membrane fraction as a pellet. After removal of the soluble supernatant, the pellet was resuspended in storage buffer (20 mM HEPES, 2 mM DTT) by pipetting. Total protein concentrations in membrane and soluble fractions were determined using a Qubit protein assay (Invitrogen). The obtained samples were stored at −80°C until further use.
The competitive ABPP selectivity assay was performed according to the previously reported protocol. Briefly, mouse brain membrane proteome (2 mg/ml, 20 µl) was preincubated for 30 min with 0.5 µl of DMSO (vehicle) or inhibitor (100 μM, finial concentration). Subsequently, the proteome-inhibitor complex was treated with the activity-based probe FP-TAMRA (250 nM, final concentration) for 20 min. […] The gels were then scanned and analyzed using a ChemiDoc MP system (Cy3 settings, BioRad). All the samples were measured and duplicated.

[1] = test system: endogenous MAGL in cancer cells; assay: Competitive ABPP in cancer cell lysates: MAGL band; assay type: biochemical; conditions: 100 µM, FP-TAMRA 500 nM
Procedure: To identify the potential off-targets of the compounds with anti-cancer activities, ABPP was applied. Cancer cells were seeded in the dishes and were washed with PBS, scraped, centrifugated (3,000 × g, 3 min) and pellets snap frozen in liquid in nitrogen. For ABPP experiments, the cell pellets were lysed by probe sonication (3 × 10 bursts) in PBS, followed by the determination of protein concentration of the intact cell lysate by Qubit assay. […] The reactions were then quenched by 10 µl sample buffer (×4). The obtained samples were directly loaded and resolved on SDS-PAGE gel (10% acrylamide). The gel-based ABPP results were then scanned and analyzed using a ChemiDoc MP system (Cy3 settings, BioRad).

In the case of `C[C@H]1COC2=C1C(=O)C(=O)c1c2ccc2c1CCCC2(C)C` [compound 23, Cryptotanshinone], the inhibition at 100 µM (endogenous mouse MAGL) is reported as 50 to 60%, the “labeling of endogenous MAGL, A549” value ([1]; 30 min, A549 cell lysate) is reported as “completely reduced the labeling” and the “labeling of endogenous MAGL, B16-F10” value ([1]; 30 min, B16-F10 cell lysate) is reported as “completely reduced the labeling”. For the same compound, the “labeling of endogenous MAGL, H1975” value ([1]; 30 min, H1975 cell lysate) was “completely reduced the labeling”, the “labeling of endogenous MAGL, HCC827” value ([1]; 30 min, HCC827 cell lysate) was “completely reduced the labeling” and the “labeling of endogenous MAGL, HT-29” value ([1]; 30 min, HT-29 cell lysate) was “completely reduced the labeling”. For the same compound, the “labeling of endogenous MAGL, Hela” value ([1]; 30 min, Hela cell lysate) was “completely reduced the labeling”, the “labeling of endogenous MAGL, OVCAR-3” value ([1]; 30 min, OVCAR-3 cell lysate) was “completely reduced the labeling” and the “inhibition of endogenous MAGL in the tested cancer cell lines” value ([1]; cancer cell lysates) was “nearly complete inhibition”.
